Test results: paper PMC5913603, “Structure–activity relationships of strigolactones via a novel, quantitative in planta bioassay” (Journal of Experimental Botany, 2018)
Read-outs that look alike come from different tables or passages of the source.

Tests used:
[1] = Chemical stability in aqueous solutions, degradation followed by HPLC; assay type: physicochemical
Protocol: The compounds were first dissolved in methanol (30%) or acetonitrile (50%) and then diluted to the final concentrations with water. The time-course of degradation was monitored by HPLC using an Agilent Technologies HPLC chromatograph 1200 Series equipped with a photo-diode array (PDA) detector, a binary-gradient high-pressure pump, and an automatic sampler. The column used was a LiChroCART® 125-4 LiChrospher® 100 RP-18 (5 μm, Merck Millipore) maintained at 25 °C. The solvents were (A) water + 0.1% formic acid and (B) acetonitrile, and the flow rate was 0.8 ml min^–1. The initial mobile phase, 95% A / 5% B, was held for 3 min and then ramped linearly to 100% B at 23 min and held for 5 min before resetting to the original conditions. The sample injection volume was 10 μl. PDA detection was by absorbance in the 200–600-nm wavelength range. Peak detection was at the optimum wavelength (254 nm) and peak areas were used for quantification. Initial and subsequent measurements of peak area attributable to the tested compound were used to fit exponential half-life curves and to calculate first-order rate constants. Stability data allowed for calculation of the time in hours for half of the tested compound to be hydrolysed (t1/2).
Natural and synthetic SLs are rather sensitive to hydrolysis at pH 7 and are readily decomposed through the cleavage of the D-ring at pH 9.38 ([Vurro et al., 2016]). Therefore, differences in activity among SL analogues may be attributed to their instability in the aqueous medium. In order to address this point, the stability in aqueous solutions of the newly synthesized SL-D-lactams was tested, and compared to the (+)-GR24 standard ([Kannan and Zwanenburg, 2014]; [Halouzka et al., 2018]). Two different conditions were considered, a 30% solution of MeOH in water and a 1:1 solution of acetonitrile in water. As expected, stability in MeOH was highly compromised for all compounds, but to a greater extent for analogues showing both the Michael acceptor function (enol ether bridge) and an unprotected N in the D-lactam ring, as for rac-3, rac-4, rac-5, and rac-7 (Table 1): after a few hours 50% of the compounds were degraded. This was not surprising from a chemical point of view, as the functional group in SL-D-lactams is an aminal, which is more prone to hydrolysis than the acetal of the natural SL skeleton. […] For rac-5, the NH compound in the EGO10 family, the half-life dropped to 2 h.

[2] = system: Phelipanche aegyptiaca seeds; experiment: Germination-inducing activity on parasitic seeds; assay type: in vivo; settings: for Fold lower potency than rac-GR24 (germination): compared with rac-GR24; for Concentration at which high germination activity was shown: high activity only at this concentration, germination normalized to rac-GR24 0.1 μM
Protocol: Seeds of Phelipanche aegyptiaca were collected from field-grown tomato in the West Galilee region of Israel. The seeds were stored in glass vials in the dark at room temperature until their use in germination tests. For the preparation of test solutions, the compound to be tested was weighed out very accurately, dissolved in acetone at 10^–2 M and then diluted with sterile distilled water to the desired concentrations. All solutions were prepared just before use. Seeds were surface-sterilized and preconditioned as described by [Bhattacharya et al. (2009)]. Briefly, after exposure for 5 min to 50% (v/v) aqueous solutions of commercial bleach (2% hypochlorite), seeds were rinsed with sterile distilled water. For preconditioning, seeds were placed on glass fibre filter discs using a sterile toothpick (approximately 50 seeds per disc); the glass fibre discs were placed on two filter paper discs, wetted with sterile distilled water, and incubated at 25 °C in the dark for 6 d. The preconditioned seeds were then allowed to dry completely in a laminar flow cabinet, after which they were treated with each compound at five different concentrations: 10^–5 M, 10^–6 M, 10^–7 M, 10^–8 M, and 10^–9 M. Their germination rate was evaluated under a stereomicroscope 7 d after the beginning of the treatment. For each concentration, at least 250 seeds were scored; synthetic SL rac-GR24 was included as a positive control across the same range of concentrations, while a solution of 0.001% acetone in sterile distilled water was included as a negative control. Seeds were scored as germinated if the radicle protruded through the seed coat 1 week after treatment. Germination values were normalized to those of rac-GR24 at 10^–7 M.
Fig. 3. Germination-inducing activity on Phelipanche aegyptiaca seeds of rac-1–9 and of strigol, ST23b, EGO10, and EDOT at different concentrations, compared to rac-GR24 0.1 μM as a positive control and to acetone as a negative control. […] The x-axis indicates the range of concentrations. Data are means (±SD) of n>250 seeds. Confidence intervals at 95% are used to express errors of the means. The data for rac-1–9 are indicated by ‘D-lactams’.

[3] = molecular target: T1, AtD14 fused to firefly luciferase (D14::LUC) (Arabidopsis thaliana, UniProt Q9SQR3); experiment: Luminometer (luciferase) assay: D14::LUC degradation in transgenic Arabidopsis seedlings; assay type: in vivo; settings: for Activity in the luciferase assay at 1 μM: weaker than (+)-GR24; for D14 degradation in the luciferase assay: 0.01–100 μM range, racemic mixtures
T1 construct: a pDONOR207 carrying the D14 promoter fused to the D14 CDS; expressed in transfected cells
T1 sequence (Q9SQR3 1-267): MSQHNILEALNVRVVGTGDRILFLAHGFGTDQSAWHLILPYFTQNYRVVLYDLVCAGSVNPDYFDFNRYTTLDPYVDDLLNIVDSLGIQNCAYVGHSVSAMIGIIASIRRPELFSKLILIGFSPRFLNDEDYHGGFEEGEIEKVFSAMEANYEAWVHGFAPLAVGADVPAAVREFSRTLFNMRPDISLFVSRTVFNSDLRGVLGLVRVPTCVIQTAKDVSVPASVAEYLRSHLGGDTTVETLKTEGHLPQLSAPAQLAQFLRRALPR
Protocol: A binary D14p::D14::LUC vector was obtained by LR-recombination (Invitrogen) of a pDONOR207 carrying the D14 promoter fused to the D14 CDS ([Chevalier et al., 2014]) in pGWB435 ([Nakagawa et al., 2007]). Transgenic D14::D14::LUC Arabidopsis plants were generated by agroinfiltration of Col-0 plants using the floral dip method ([Clough and Bent, 1998]). Seeds were surface-sterilized with an 8% aqueous solution of commercial bleach in distilled water for 5 min and rinsed five times with sterile distilled water. Sterile seeds were plated on MS medium (pH 5.8) ([Murashige and Skoog, 1962]) without sucrose solidified with 1.2% Agar, and kept at 4 °C for 3 d (stratification). Seeds were then incubated for 7 d in a growth chamber at 25 °C and a photoperiod of 16 h light/8 h dark. SL analogues and mimics (Figs 1, 2) were accurately weighed and dissolved in acetone at 10^–2 M. Five different concentrations (10^–4 M, 10^–5 M, 10^–6 M, 10^–7 M, 10^–8 M) were prepared by 1:10 serial dilutions in liquid MS medium, together with blank controls containing corresponding water and acetone volumes in the medium. D-Luciferin (potassium salt) stock was prepared at 25 mg ml^–1 in DMSO, aliquoted and stored at –80 °C until use; all other solutions were prepared just before the assay. Using tweezers, 7-d-old Arabidopsis seedlings were placed in a 96-well microtiter plate with their cotyledons facing up (one seedling per well, in 170 µl of liquid MS medium), and 15 µl of luciferin (0.125 mg ml^–1, diluted 1:200 in MS from stock) was added to each well, corresponding to 1.875 µg. The plate was covered with a transparent film with a hole poked above each well to allow for gas exchange. Measurements were taken every 15 min in a multimode reader (LB942 Tristar2 S, Berthold Technologies) for the following 24 h; the signal was allowed to stabilize for 2–3 h in the light before treatments were started by adding 15 µl per well of the different SLs in MS medium, thus reaching a final volume in each well of 200 µl and 9.4 µg ml^– of luciferin. Appropriate blank controls were added as well. Each treatment was applied to a minimum of 16 wells (seedlings), each of which was measured individually over time. The percentage efficacy of each compound molecule was calculated 6 h after treatment as a function of the decrease in D14::LUC-emitted luminescence with respect to (+)-GR24 1 µM (i.e. GR24^5DS), assuming that the latter, minus the drift of the corresponding blank control, had 100% efficacy. For calibration purposes, SL analogues that had already been characterized, namely (±)-ST23b, (±)-EGO10, and (±)-EDOT ([Prandi et al., 2011]), were tested across the same concentration range, along with (±)-strigol (Chiralix, NL). The half maximal-effective concentration (EC50) for (+)-GR24 was calculated by linear regression fitting of the data (n=5, with at least three individual seedlings and values being pooled for each replicate) at the different concentrations, minus the values for acetone-treated samples (negative controls) and normalized in relation to (+)-GR24 0.01 μM, which was set to 0%. Confidence intervals at 95% were used to express errors of the means.
D14 is a target for proteasome-dependent destruction upon interaction with its ligand(s), which explains why fluorescence of D14::GFP fusion proteins is quenched upon SL treatment in transgenic Arabidopsis ([Chevalier et al., 2014]). We exploited this molecular network to implement a quantitative activity assay that inversely correlated luminescence to perception of SL-related molecules in transgenic Arabidopsis expressing D14::LUC under the control of the D14 endogenous promoter. […] We then used the assay to test various SLs in the same range, namely strigol as an example of natural SLs; ST23b, EGO10, and EDOT (Fig. 1, all used as rac mixtures) as examples of active SL analogues; and the new set of SL-D-lactams rac-1–9 (Fig. 2).
Fig. 4. Luciferase assay. […]

[4] = aqueous acetonitrile solution in HPLC vials, pH 6.7, 1:1 acetonitrile:water, 21 °C, pH 6.7, extrapolated from plots of peak area versus time, read-out: Half-life (t1/2, h) ACN:Water, 1:1 (converted)
[5] = aqueous methanol solution in HPLC vials, pH 6.7, 30% MeOH in water, 21 °C, pH 6.7, extrapolated from plots of peak area versus time, read-out: Half-life (t1/2, h) 30% MeOH (converted)
[6] = GraphPad fit, normalized with low acetone control

| SMILES | half-life at 200 μg ml^–1 [1, 4] [h] | half-life at 200 μg ml^–1 [1, 5] [h] | Activity in the luciferase assay at 1 μM [3] | D14 degradation in the luciferase assay [3] | further results |
| --- | --- | --- | --- | --- | --- |
| CC1=C[C@H](O/C=C2/C(=O)O[C@H]3c4ccccc4C[C@@H]23)N(C(=O)OC(C)(C)C)C1=O (racemic) [rac-2] | 140 | 21 | – | – | Concentration at which some germination activity could still be detected ([2]; tested 10^-9 to 10^-5 M): 1 µM |
| CC1=C[C@H](O/C=C2\Cc3c(n(C)c4ccccc34)C2=O)NC1=O (racemic) [rac-5] | 24 | 2 | – | – | – |
| CC1=C[C@H](O/C=C2/C(=O)O[C@@H]3C4=C(C[C@H]23)[C@@H](O)CCC4(C)C)OC1=O [strigol] | – | – | significant activity | induced high levels of D14 degradation | – |
| CC1=C[C@H](O/C=C2\Cc3c([nH]c4ccccc34)C2=O)N(C(=O)OC(C)(C)C)C1=O (racemic) [rac-6] | 528 | 190 | – | – | – |
| CC1=C[C@H](O/C=C2/C(=O)O[C@@H]3c4ccccc4C[C@H]23)OC1=O (racemic) [rac-GR24, reference compound] | – | – | – | – | Concentration of maximum germination activity ([2]; concentrations equal to or above): ≥ 0.1 µM |
| CC1=C[C@H](O/C=C2/C(=O)O[C@@H]3c4ccccc4C[C@H]23)OC1=O [(+)-GR24] | – | – | – | – | half-life at 200 μg ml^–1 ([1]; buffer, pH 6.7, Half-life (t1/2, h) 30% MeOH): 80 h; half-life at 200 μg ml^–1 ([1]; buffer, pH 6.7, Half-life (t1/2, h) ACN:Water, 1:1): 3380 h; HILLSLOPE best-fit value (Table S1) [3, 6]: 0.4764; LOGIC50 best-fit value (Table S1) [3, 6]: -5.791; DC50 ([3]; read-out: EC50 (D14::LUC assay), 6 h after treatment, 0.01–100 μM, n=5): 1620 nM; DC50 ([3]; read-out: EC50 best-fit value (Table S1), GraphPad fit, normalized with low acetone control): 1620 nM |
| CC1=CC(O/C=C2/C(=O)c3c(c4cc(-c5scc6c5OCCO6)ccc4n3C)C2C)OC1=O (centres unmarked) [EDOT] | – | – | significant activity | induced high levels of D14 degradation | – |
| CC1=C[C@H](Oc2ccc(Br)cc2)NC1=O (racemic) [rac-7] | 17 | 11 | – | – | Fold lower potency than rac-GR24 (germination) [2]: ~ 100 fold; Concentration at which high germination activity was shown [2]: 10 µM |
| CC1=C[C@H](O/C=C2/C(=O)O[C@@H]3c4ccccc4C[C@H]23)N(C(=O)OC(C)(C)C)C1=O (racemic) [rac-1] | 720 | 110 | – | – | Fold lower potency than rac-GR24 (germination) [2]: ~ 100 fold; Concentration at which high germination activity was shown [2]: 10 µM |
| CC1=C[C@H](Oc2ccc(Br)cc2)N(C(=O)OC(C)(C)C)C1=O (racemic) [rac-8] | 1080 | 230 | – | – | – |
| CC1=CC(O/C=C2\Cc3c(n(C)c4ccccc34)C2=O)OC1=O (centres unmarked) [EGO10] | – | – | significant activity | induced high levels of D14 degradation | – |
| CC1=CC(O/C=C2/C(=O)c3c(c4cc(-c5ccc(N(C)C)cc5)ccc4n3C)C2C)OC1=O (centres unmarked) [ST23b] | – | – | significant activity | induced high levels of D14 degradation | – |
